Laboratory results: paper PMC6024209, “Inhibition of P. aeruginosa c-di-GMP phosphodiesterase RocR and swarming motility by a benzoisothiazolinone derivative” (Chemical Science, 2016)

Target: RocR (Pseudomonas aeruginosa, UniProt Q9HX69)
Experiment: RocR intrinsic fluorescence change (Kd […] by two fits); also non-competitive enzyme inhibition, Ki […]
Assay type: binding

Sequence of RocR (Q9HX69 whole entry): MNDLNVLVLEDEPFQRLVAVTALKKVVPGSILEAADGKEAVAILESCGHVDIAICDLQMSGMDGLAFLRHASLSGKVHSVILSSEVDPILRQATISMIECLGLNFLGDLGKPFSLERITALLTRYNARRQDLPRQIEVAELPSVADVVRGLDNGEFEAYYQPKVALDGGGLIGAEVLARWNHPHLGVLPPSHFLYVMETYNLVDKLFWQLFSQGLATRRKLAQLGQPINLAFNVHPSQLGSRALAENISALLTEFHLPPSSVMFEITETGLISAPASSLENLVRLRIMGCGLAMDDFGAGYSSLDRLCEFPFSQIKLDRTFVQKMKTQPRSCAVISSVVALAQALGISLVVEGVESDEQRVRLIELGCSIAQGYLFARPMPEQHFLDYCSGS

For O=C(CCCn1sc2ccccc2c1=O)Nc1ccc(O)cc1 [compound 1], the Kd was 14 ± 2 µM.
